Test results published in patent publication US8895733B2 (Novartis AG, priority 2010, dated 2014).

Assays:
Nav 1.7 [1] = target: T1, Nav 1.7 (Homo sapiens, UniProt Q15858); assay: Whole-cell voltage clamp electrophysiology, IonWorks Quattro (marker a in Table of Examples); format: cell-based; details: marker a: IonWork Quattro data; read-out: Nav 1.7 activity
T1 construct: expressed in transfected cells
Text: (§1) a.IonWork Quattro data, b=Manual patch clamp data, c=Automated patch clamp data M=Method
Whole-Cell Voltage Clamp Electrophysiology Assay
(§2) Patch-clamp electrophysiology is considered the gold standard technique for investigation of ion channel function and pharmacology. Using this method, sodium channel currents can be measured in cells, which stably (or transiently) express the sodium channel subtype of interest. Application of compounds during such experiments provides a functional measure of the activity and potency of compounds affecting the ion channel of interest.
(§3) Electrophysiological studies can be performed using automated or manual patch-clamp techniques. Automated patch-clamp instruments suitable for this work include the Ion Works HT (MDS), Ion Works Quattro (MDS), PatchLiner (Nanion technologies), Port-A-Patch (Nanion technologies), QPatch (Sophion) or any other suitable platform.
(§4) For recording in automated patch-clamp instruments, cells expressing the voltage-gated sodium channel subtype of interest are dispensed in appropriate chips (plates with more than one recording chambers each containing one or more apertures to generate whole-cell patches), as provided by the manufacturer. Typically, the whole-cell perforated patch configuration is used for probing the pharmacology of compounds in automated patch-clamp electrophysiology on sodium channels. Extracellular and intracellular buffers for such experiments are composed according to the literature, or according to the instructions provided by the manufacturer of the instruments. Test solutions, which contain the compounds to be tested, are applied to the cells expressing the sodium channel of interest by a pipetting system, typically integrated into the robots.
(§5) A suitable voltage stimulus protocol is used to activate voltage-gated sodium channel proteins of interest. A typical stimulus protocol may consist of sweeps of sequential voltage pulses starting from a holding potential (i.e. −65 mV), to a more positive and depolarising test pulse potential (i.e. −10 mV) and finally to a more negative and hyperpolarising potential (i.e. −100 mV). According to the biophysics of the voltage-gated ion channel of interest and interest in channel configuration the voltages and durations of the pulses as well as the overall frequency of sweeps applied might vary. Accordingly, a stimulus protocol was designed to assess compounds due to their potential to block NaV1.7 channels primarily in inactivated state. Selectivity over other voltage-gated sodium channel members was assessed by protocols that reflect the native function of the channels (i.e. heart rate or firing of neurons).

Nav1.5 [2] = target: T2, Nav1.5 (Homo sapiens, UniProt Q14524); assay: Inhibition of Nav1.5 as measured using QPatch; format: cell-based
T2 construct: expressed in transfected cells
T2 sequence (Q14524 whole entry): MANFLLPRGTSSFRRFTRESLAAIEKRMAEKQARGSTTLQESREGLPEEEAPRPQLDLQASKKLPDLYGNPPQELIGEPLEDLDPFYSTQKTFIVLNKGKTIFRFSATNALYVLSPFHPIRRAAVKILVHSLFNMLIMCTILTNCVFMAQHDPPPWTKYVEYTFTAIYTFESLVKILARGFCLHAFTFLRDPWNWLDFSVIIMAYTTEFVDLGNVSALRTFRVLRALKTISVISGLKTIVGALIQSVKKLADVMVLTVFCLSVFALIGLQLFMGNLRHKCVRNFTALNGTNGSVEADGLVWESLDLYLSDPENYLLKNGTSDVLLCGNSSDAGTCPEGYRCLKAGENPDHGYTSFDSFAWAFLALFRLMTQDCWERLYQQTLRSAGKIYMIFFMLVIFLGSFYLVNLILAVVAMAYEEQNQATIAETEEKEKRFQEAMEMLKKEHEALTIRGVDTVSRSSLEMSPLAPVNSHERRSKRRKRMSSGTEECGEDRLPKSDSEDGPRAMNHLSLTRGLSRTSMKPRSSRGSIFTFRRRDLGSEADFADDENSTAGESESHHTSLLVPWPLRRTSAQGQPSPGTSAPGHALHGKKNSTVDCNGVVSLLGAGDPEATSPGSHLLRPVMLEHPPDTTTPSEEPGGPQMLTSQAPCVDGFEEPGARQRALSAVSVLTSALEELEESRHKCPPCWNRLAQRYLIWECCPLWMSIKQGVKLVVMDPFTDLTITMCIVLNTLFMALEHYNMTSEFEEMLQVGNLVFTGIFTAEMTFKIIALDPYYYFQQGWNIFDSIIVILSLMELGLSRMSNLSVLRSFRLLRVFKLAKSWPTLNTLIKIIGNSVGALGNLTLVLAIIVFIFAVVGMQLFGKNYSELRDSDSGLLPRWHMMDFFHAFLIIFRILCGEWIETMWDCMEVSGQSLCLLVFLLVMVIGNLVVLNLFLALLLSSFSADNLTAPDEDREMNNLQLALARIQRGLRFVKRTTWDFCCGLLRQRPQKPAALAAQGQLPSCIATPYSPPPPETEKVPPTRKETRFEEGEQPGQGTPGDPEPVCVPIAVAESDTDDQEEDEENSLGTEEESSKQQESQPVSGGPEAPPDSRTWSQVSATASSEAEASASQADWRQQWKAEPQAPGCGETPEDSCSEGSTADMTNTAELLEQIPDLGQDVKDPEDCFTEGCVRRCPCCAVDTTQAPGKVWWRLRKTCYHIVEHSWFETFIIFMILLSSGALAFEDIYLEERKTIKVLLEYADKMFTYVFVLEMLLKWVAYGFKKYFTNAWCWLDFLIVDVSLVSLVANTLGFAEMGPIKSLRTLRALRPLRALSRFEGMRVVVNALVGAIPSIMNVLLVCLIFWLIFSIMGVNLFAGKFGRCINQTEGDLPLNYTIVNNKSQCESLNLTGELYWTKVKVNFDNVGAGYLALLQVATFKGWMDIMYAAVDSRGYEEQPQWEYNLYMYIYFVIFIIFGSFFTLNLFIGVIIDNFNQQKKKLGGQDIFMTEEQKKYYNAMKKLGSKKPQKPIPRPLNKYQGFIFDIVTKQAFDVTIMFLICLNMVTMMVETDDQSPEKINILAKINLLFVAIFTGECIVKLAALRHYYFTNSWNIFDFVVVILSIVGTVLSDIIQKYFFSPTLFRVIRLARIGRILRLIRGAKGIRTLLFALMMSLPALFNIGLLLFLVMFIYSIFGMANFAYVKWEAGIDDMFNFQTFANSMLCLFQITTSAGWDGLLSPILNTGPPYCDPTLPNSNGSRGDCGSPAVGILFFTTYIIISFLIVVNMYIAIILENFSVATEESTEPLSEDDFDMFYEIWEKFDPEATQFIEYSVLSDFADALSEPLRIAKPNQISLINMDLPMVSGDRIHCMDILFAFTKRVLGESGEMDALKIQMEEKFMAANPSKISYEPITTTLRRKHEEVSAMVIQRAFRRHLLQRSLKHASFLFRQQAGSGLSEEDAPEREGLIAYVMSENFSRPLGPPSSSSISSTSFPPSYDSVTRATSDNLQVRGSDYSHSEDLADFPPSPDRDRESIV
Text: as §2, §3, §4, §5
Inhibition of Nav1.5 by Compounds of formula (I) as measured using QPatch

Nav 1.7 [3] = target: T1, Nav 1.7; assay: Whole-cell voltage clamp electrophysiology, manual patch clamp (marker b in Table of Examples); format: cell-based; details: marker b: Manual patch clamp data; read-out: Nav 1.7 activity
Procedure, shortened: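 Manual whole-cell patch clamp on cells expressing human NaV1.7, compounds applied by microperfusion. Protocol biased to inactivated-state block: holding −60 mV, hyperpolarizing step −120 mV for 100 ms, then depolarization to −20 mV for 25 ms, pulses at 0.1 Hz.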

Nav 1.7 [4] = target: T1, Nav 1.7; assay: Whole-cell voltage clamp electrophysiology, automated patch clamp (marker c in Table of Examples); format: cell-based; details: marker c: Automated patch clamp data; read-out: Nav 1.7 activity
Procedure, shortened: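 A voltage protocol weighted toward inactivated-state block was used to test compounds on stably expressing cells, with pulses from −65 mV holding to −10 mV test and −100 mV. Currents came from whole-cell automated patch-clamp recordings, either IonWorks Quattro or other automated instruments, usually in perforated-patch mode.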

[5] = system: inflammatory pain induced by intraplantar injection of Complete Freund's Adjuvant; assay: FCA (Freund's Complete Adjuvant) test, model of inflammatory pain; format: in vivo; details: rat, tested 72 h post FCA injection
Method: Compounds of formula (I) may show analgesic activity in the FCA (Freund's Complete Adjuvant) test in the rat, a model of inflammatory pain which is induced by intraplantar injection of Complete Freund's Adjuvant (Stein et al. Pharmac. Biochem. Behav., 1988, 31, 445-451). […] Thus, the local anesthetic effect may not mask the analgesic properties of the compounds (Scott et al., British Journal of Anaesthesia, 1988, 61, 165-8). […] All compounds were tested 72 h post FCA injection.

Nav1.5 [6] = target: T2, Nav1.5; assay: Inhibition of Nav1.5 as measured using manual patch clamp; format: cell-based
Text: as §2
Electrophysiological studies can also be performed using the whole cell configuration of the standard manual patch clamp technique as described in the literature (e.g. Pflugers Arch., 1981, 391(2), 85-100). In this assay, cells that express the voltage-gated sodium channel protein of interest are exposed to the drugs by conventional microperfusion systems, or by a home-built perfusion system. A suitable voltage stimulus protocol is used to activate the voltage-gated sodium channels.
as §5
Electrophysiological studies can also be performed using the whole cell configuration of the standard manual patch clamp technique as described in the literature (e.g. Pflugers Arch., 1981, 391(2), 85-100). In this assay, cells that express the human voltage-gated sodium channel protein of interest are exposed to the drugs by conventional microperfusion systems, or by a home-built perfusion system. A suitable voltage stimulus protocol is used to activate the voltage-gated sodium channels. A suitable voltage stimulus protocol may consist of sequential voltage pulses from a holding potential, each first hyperpolarizing the cell, then depolarizing the channels for a brief period. A particularly suitable holding potential may be a voltage allowing a fraction of channels to remain in an inactivated state, like −60 mV. A suitable hyperpolarizing voltage and duration may be −120 mV for 100 ms, and depolarization voltage and duration may be −20 mV for 25 ms, and a suitable frequency of pulses may be 0.1 Hz, but may also have other parameters. Accordingly, a stimulus protocol was designed to assess compounds due to their potential to block NaV1.7 channels primarily in inactivated state. Selectivity over other voltage-gated sodium channel members was assessed by protocols that reflect the native function of the channels (i.e. heart rate or firing of neurons).
Inhibition of Nav1.5 by Compounds of formula (I) as measured using manual patch clamp

Nav 1.7 [7] = target: T1, Nav 1.7; assay: Nav 1.7 activity in Table of Examples, no platform marker printed; format: cell-based; details: no marker a/b/c printed in the cell
Text: as §1

T1 sequence (Q15858 whole entry): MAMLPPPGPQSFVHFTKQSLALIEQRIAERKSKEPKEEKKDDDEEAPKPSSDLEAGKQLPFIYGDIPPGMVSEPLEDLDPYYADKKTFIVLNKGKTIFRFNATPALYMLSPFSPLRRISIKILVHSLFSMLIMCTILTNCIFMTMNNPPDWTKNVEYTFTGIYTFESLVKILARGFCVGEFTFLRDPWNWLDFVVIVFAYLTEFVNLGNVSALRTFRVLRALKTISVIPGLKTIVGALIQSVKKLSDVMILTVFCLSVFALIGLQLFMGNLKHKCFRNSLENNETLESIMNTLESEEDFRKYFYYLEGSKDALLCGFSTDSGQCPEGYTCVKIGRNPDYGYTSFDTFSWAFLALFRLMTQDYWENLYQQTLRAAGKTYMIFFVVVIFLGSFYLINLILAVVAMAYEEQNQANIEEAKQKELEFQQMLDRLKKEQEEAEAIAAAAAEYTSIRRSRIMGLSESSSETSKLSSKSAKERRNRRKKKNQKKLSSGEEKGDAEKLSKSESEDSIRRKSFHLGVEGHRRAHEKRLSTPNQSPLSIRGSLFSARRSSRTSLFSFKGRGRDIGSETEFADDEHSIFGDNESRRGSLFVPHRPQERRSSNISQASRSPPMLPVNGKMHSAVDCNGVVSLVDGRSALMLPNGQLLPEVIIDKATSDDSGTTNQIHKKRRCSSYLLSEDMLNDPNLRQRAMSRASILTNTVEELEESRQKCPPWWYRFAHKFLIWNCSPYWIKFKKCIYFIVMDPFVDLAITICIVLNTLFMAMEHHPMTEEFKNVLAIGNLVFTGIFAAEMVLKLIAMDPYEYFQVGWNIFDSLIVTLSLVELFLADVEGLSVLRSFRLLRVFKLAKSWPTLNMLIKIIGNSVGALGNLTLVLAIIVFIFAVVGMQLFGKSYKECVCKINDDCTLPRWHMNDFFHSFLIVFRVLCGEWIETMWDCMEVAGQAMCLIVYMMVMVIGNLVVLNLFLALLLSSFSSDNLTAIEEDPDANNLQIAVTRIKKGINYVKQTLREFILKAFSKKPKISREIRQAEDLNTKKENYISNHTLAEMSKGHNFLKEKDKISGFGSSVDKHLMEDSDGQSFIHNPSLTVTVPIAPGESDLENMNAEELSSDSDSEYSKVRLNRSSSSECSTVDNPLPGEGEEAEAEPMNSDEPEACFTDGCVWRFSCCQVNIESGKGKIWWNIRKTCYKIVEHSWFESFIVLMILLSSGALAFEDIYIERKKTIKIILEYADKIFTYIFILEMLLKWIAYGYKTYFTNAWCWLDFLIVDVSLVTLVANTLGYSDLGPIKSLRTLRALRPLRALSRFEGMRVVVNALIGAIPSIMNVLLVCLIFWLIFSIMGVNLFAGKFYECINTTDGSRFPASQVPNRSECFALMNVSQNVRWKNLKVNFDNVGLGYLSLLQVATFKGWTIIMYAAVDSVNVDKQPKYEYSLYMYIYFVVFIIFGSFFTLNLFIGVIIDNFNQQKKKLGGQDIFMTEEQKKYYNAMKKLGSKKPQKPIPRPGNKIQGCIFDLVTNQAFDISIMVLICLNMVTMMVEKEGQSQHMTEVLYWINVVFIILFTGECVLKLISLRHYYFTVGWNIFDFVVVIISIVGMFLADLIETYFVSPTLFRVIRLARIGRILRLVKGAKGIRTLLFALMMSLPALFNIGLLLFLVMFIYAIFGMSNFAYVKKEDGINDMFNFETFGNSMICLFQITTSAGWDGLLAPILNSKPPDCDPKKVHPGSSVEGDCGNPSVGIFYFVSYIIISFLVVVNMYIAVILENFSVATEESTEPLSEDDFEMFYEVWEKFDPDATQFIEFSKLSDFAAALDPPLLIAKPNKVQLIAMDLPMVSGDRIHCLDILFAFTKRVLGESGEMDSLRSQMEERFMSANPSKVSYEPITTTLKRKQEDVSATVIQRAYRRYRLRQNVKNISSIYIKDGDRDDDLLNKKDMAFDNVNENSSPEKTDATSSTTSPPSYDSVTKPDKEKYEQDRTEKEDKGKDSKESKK

Row | Structure (SMILES) | IC50 (Nav1.5 [2]) [nM] | IC50 (Nav 1.7 [3]) [nM] | also measured
1 | Nc1nc(Nc2cccc(Cl)c2)nc(-c2noc(-c3ccco3)n2)n1 [Example 32, N-(3-Chloro-phenyl)-6-(5-furan-2-yl-[1,2,4]oxadiazol-3-yl)-[1,3,5]triazine-2,4-diamine] |  |  | IC50 (Nav 1.7 [1]): < 500 nM
2 | CN(c1cccc(C(F)(F)F)c1)c1nc(N)nc(-c2noc(-c3ccco3)n2)n1 [Example 33] |  |  | IC50 (Nav 1.7 [1]): < 1000 nM
3 | CN(c1nc(N)nc(-c2noc(-c3ccco3)n2)n1)c1cccc(F)c1F [Example 34, 6-(5-Furan-2-yl-[1,2,4]oxadiazol-3-yl)-N-methyl-N-(2,3-difluorophenyl)-[1,3,5]triazine-2,4-diamine] |  |  | IC50 (Nav 1.7 [1]): < 500 nM
4 | Nc1nc(Nc2ccccc2)nc(-c2noc(-c3ccccn3)n2)n1 [Example 39, N-Phenyl-6-(pyridin-2-yl-[1,2,4]oxadiazol-3-yl)-[1,3,5]triazine-2,4-diamine] | 891 | 319 | 
5 | Nc1nc(Nc2ccccc2)nc(-c2noc(-c3ccc(OCC(F)(F)F)nc3)n2)n1 [Example 41, 2-N-Phenyl-6-{5-[6-(2,2,2-trifluoroethoxy)pyridin-3-yl]-1,2,4-oxadiazol-3-yl}-1,3,5-triazine-2,4-diamine] | 334 |  | IC50 (Nav 1.7 [4]): 673 nM
6 | CN(c1ccccc1)c1nc(N)nc(-c2noc(-c3ncccc3Br)n2)n1 [Example 43, 6-[5-(3-Bromopyridin-2-yl)-[1,2,4]oxadiazol-3-yl]-N-methyl-N-phenyl-[1,3,5]triazine-2,4-diamine] | 1030 |  | IC50 (Nav 1.7 [4]): 102 nM
7 | CN(c1ccccc1)c1nc(N)nc(-c2noc(-c3ccc(OCC(F)(F)F)nc3)n2)n1 [Example 67, N-Methyl-N-phenyl-6-{5-[6-(2,2,2-trifluoroethoxy)-pyridin-3-yl]-[1,2,4]oxadiazol-3-yl}-[1,3,5]triazine-2,4-diamine] | 7060 | 110 | analgesic efficacy in FCA test ([5]; 3 mg/kg p.o.): efficacious
8 | CN(c1ccccc1)c1nc(N)nc(-c2noc(C(=O)NCc3ccccc3)n2)n1 [Example 71, 3-[4-Amino-6-(methyl-phenyl-amino)-[1,3,5]triazin-2-yl]-[1,2,4]oxadiazole-5-carboxylic acid benzylamide] | 3020 | 814 | 
9 | CN(c1ccccc1)c1nc(N)nc(-c2noc(C(=O)NC3CCCC3)n2)n1 [Example 72, 3-[4-Amino-6-(methyl-phenyl-amino)-[1,3,5]triazin-2-yl]-[1,2,4]oxadiazole-5-carboxylic acid cyclopentylamide] | 5960 |  | IC50 (Nav 1.7 [4]): 288 nM
10 | CN(c1ccccc1)c1nc(N)nc(-c2noc(-c3nccs3)n2)n1 [Example 125, N-Methyl-N-pheny!-6-(5-thiazol-2-yl-[1,2,4]oxadiazol-3-yl)-[1,3,5]triazine-2,4-diamine] |  | 560 | analgesic efficacy in FCA test ([5]; 1 mg/kg p.o.): efficacious; IC50 (Nav1.5 [6]): 917 nM
11 | Nc1nc(Nc2ccccc2)nc(-c2noc(-c3nccs3)n2)n1 [Example 130, N-Phenyl-6-(5-thiazol-2-yl-[1,2,4]oxadiazol-3-yl)-[1,3,5]triazine2,4-diamine] | 1670 | 44 | analgesic efficacy in FCA test ([5]; 1 mg/kg p.o.): efficacious
12 | CN(c1ccccc1)c1nc(N)nc(-c2noc(-c3ccc(COCC(F)(F)F)nc3)n2)n1 [Example 291, 2-N-Methyl-2-N-phenyl-6-(5-{6-[(2,2,2-trifluoroethoxy)methyl]pyridin-3-yl}-1,2,4-oxadiazol-3-yl)-1,3,5-triazine-2,4-diamine] |  |  | IC50 (Nav 1.7 [7]): 73 nM
